Test system in one data set: not listed separately
The data set can be described thus: Cytotoxicity against human MT2 cells after 4 to 5 days by MTT assay.
Conditions: not given
Type of data set: cell-based.
As a reminder, the CC50 is the concentration giving 50% cytotoxicity. Higher therefore signals better tolerance by the cells. On to `CC(C)=C1C(=O)C[C@@]2(C)C/C=C(\CO)CC/C=C(\C)CC[C@H]12`, for which the midpoint of cytotoxicity, the CC50, lay at 980 µM.

With `CC(C)=C1C(=O)C[C@@]2(C)C/C=C(\C)CC/C=C(\C)CC[C@H]12` [DOLABELLANE], the midpoint of cytotoxicity, the CC50, lay at 2570 µM. Compared with the last compound, the CC50 is about 2.6-fold higher.

In turn, `CC(C)=C1C(=O)C[C@@]2(C)C[C@@H]3O[C@@]3(C)CC[C@@H]3O[C@@]3(C)CC[C@H]12` gave a CC50 of 1690 µM. Compared with the last compound, the CC50 is about 1.5-fold lower.

`Cc1ccnc2c1NC(=O)c1cccnc1N2C1CC1` [NEVIRAPINE]: the midpoint of cytotoxicity, the CC50, lay at 320 µM.

`C[C@H]1/C=C/[C@@]2(C)CC[C@@H](C(C)(C)O)[C@@H]2[C@@H](O)C[C@@](C)(O)/C=C\C1` gave a CC50 of 1130 µM.

Consider `CC(C)=C1CC[C@@]2(C)C/C=C(\C)CC/C=C(\C)CC[C@H]12`, for which the 50% cytotoxic concentration (CC50) was found to be 1830 µM.

For `C=C1CC[C@@H]2C(=C(C)C)C(=O)C[C@@]2(C)C[C@@H](O)[C@](C)(O)CC[C@@H]1O`, the CC50 came to 920 µM.

Another data set relates to Human immunodeficiency virus 1. Put plainly: Antiviral activity against X4 tropic HIV1 3B infected in human MT2 cells assessed as protection against virus-induced cytopathic effect after 2 to 3 days by MTT assay. The data set is classed as functional, organism-based. Particulars: Human immunodeficiency virus 1, 3B. (Protection from cytopathic effect is a common read-out in antiviral testing.)
The EC50 is the concentration at which the effect is half-maximal. Regarding `CC(C)=C1C(=O)C[C@@]2(C)C/C=C(\CO)CC/C=C(\C)CC[C@H]12`, the half-maximal effective concentration (EC50) is 0.69 µM.

Turning to `CC(C)=C1C(=O)C[C@@]2(C)C/C=C(\C)CC/C=C(\C)CC[C@H]12` [DOLABELLANE], the EC50 is 190 µM.

For the compound `CC(C)=C1C(=O)C[C@@]2(C)C[C@@H]3O[C@@]3(C)CC[C@@H]3O[C@@]3(C)CC[C@H]12`, the EC50 stood at 0.73 µM.

In the case of `C[C@H]1/C=C/[C@@]2(C)CC[C@@H](C(C)(C)O)[C@@H]2[C@@H](O)C[C@@](C)(O)/C=C\C1`, the EC50 is 6.16 µM.

For `CC(C)=C1CC[C@@]2(C)C/C=C(\C)CC/C=C(\C)CC[C@H]12`, the EC50 stood at 210 µM.

In the case of `C=C1CC[C@@H]2C(=C(C)C)C(=O)C[C@@]2(C)C[C@@H](O)[C@](C)(O)CC[C@@H]1O`, the EC50 amounted to 3.9 µM.

Test system in another data set: not listed separately
Put plainly: Selectivity index, ratio of CC50 for human MT2 cells to EC50 for X4 tropic HIV1 3B infected in human MT2 cells. Type of data set: toxicity, cell-based. Particulars: read-out: Ratio CC50/EC50.
As to `CC(C)=C1C(=O)C[C@@]2(C)C/C=C(\CO)CC/C=C(\C)CC[C@H]12`, the selectivity ratio is 1420.

With `CC(C)=C1C(=O)C[C@@]2(C)C/C=C(\C)CC/C=C(\C)CC[C@H]12` [DOLABELLANE], the selectivity ratio was found to be 13.5.

For `CC(C)=C1C(=O)C[C@@]2(C)C[C@@H]3O[C@@]3(C)CC[C@@H]3O[C@@]3(C)CC[C@H]12`, the selectivity ratio worked out at 2320.

On to `C[C@H]1/C=C/[C@@]2(C)CC[C@@H](C(C)(C)O)[C@@H]2[C@@H](O)C[C@@](C)(O)/C=C\C1`, for which the selectivity ratio worked out at 184.

As to `CC(C)=C1CC[C@@]2(C)C/C=C(\C)CC/C=C(\C)CC[C@H]12`, the selectivity ratio worked out at 8.7.

Turning to `C=C1CC[C@@H]2C(=C(C)C)C(=O)C[C@@]2(C)C[C@@H](O)[C@](C)(O)CC[C@@H]1O`, the selectivity ratio is 236.

The values are drawn from ChEMBL document CHEMBL3351884, “Semi-synthesis of oxygenated dolabellane diterpenes with highly in vitro anti-HIV-1 activity” (Bioorg Med Chem Lett, 2014).
